Measured values taken from article PMC5447021, “TNF Lectin-Like Domain Restores Epithelial Sodium Channel Function in Frameshift Mutants Associated with Pseudohypoaldosteronism Type 1B” (Frontiers in Immunology, 2017).
“Also recorded” adds a separate entry of the source.

Tests used:
[1] = system: βE539A,E542A γE548A,E551A-ENaC (βM2γM2); assay: Whole-cell patch clamp, βM2γM2-ENaC; format: cell-based, human; settings: HEK-293, 200 nM solnatide
Procedure: (§1) Point mutations of α-, β-, γ- and δ-hENaC and PHA1B frameshift mutations of α-hENaC were prepared with the QuikChange Lightning Site-Directed Mutagenesis Kit (Agilent Technologies, CA, USA). Mutagenic primers were designed individually with the Primer Design Program provided on the producer’s website or for the frameshift mutations the same base changes as reported in patients (see Table 2) were performed. Primers were ordered from Sigma-Aldrich, Vienna, Austria.
(§2) HEK-293 cells were transfected 1 day after cell seeding using X-tremeGENE HP DNA transfection reagent (Roche Diagnostics, Mannheim, Germany) according to the manufacturer’s protocol. A set of WT or mutant αβγ- or δβγ-hENaC, or α-, β-, γ-, or δ-hENaC alone was used, and the ratio of DNA to transfection reagent was 1:3. The expression was highest 48–72 h after transfection.
(§3) Electrophysiological experiments were performed as described in detail by Shabbir et al. ([16]). […] Currents were recorded with the patch clamp method in the whole-cell mode. The chamber contained 1 ml of the bath solution of the following composition (in mM): 145 NaCl, 2.7 KCl, 1.8 CaCl2, 2 MgCl2, 5.5 glucose, and 10 HEPES, adjusted to pH 7.4 with 1 M NaOH solution. Micropipettes were pulled from thin-walled borosilicate glass capillaries (Harvard Apparatus, Holliston, MA, USA) with a DMZ Zeitz Puller to obtain electrode resistances ranging from 2 to 5 MΩ. […]

[2] = system: αI68fs; assay: Membrane abundance of αI68fs; format: cell-based, human; settings: 200 nM, relative to WT control (=1)
Procedure: Cell surface biotinylation was performed as previously described ([26]). In brief, A549 cells or transiently transfected HEK-293 cells were grown in 10 cm dishes in 37°C, 5% CO2 incubator in DMEM medium supplemented with 5% FBS. […] Medium was aspirated, and then cells were washed twice with 10 ml ice-cold phosphate-buffered saline (PBS), covered with 2.5 mg EZ-Link Sulfo-NHS-SS-Biotin (Thermo Scientific, Rockford, USA), dissolved in 10 ml ice-cold PBS, and incubated at 4°C with gentle agitation for 30 min. Fifty milliliters of quenching solution were added to cells; then cells were scraped in solution and transferred to fresh 50 ml tube. Cell suspension was centrifuged at 500 × g for 3 min. Supernatant was discarded, and 5 ml of Tris-buffered saline (TBS) was added to the cell pellet. The cell pellet was resuspended and centrifuged at 500 × g for 3 min. Supernatant was discarded and cell pellet was resuspended in lysis buffer containing protease inhibitor cocktail (10 µM pepstatin A, 10 µM phenylmethylsulfonyl fluoride, and 10 µM leupeptin) and transferred to fresh 1.5 ml centrifuge tube. Cell pellet was then homogenized on ice by ultrasonication using 1 s bursts and incubated on ice for at least 30 min. Intact cells and nuclei were pelleted by centrifugation at 10,000 × g for 2 min under cooling conditions. […] Exposed films were scanned and quantified using ImageJ (NIH, MD, USA). […]

[3] = system: pulmonary edema; settings: acute hypobaric hypoxia and exercise; cited from earlier work
From the text: Like TNF, TIP peptide can influence regulation of alveolar fluid balance.

[4] = system: αF435fs (co-expressed with βγ-ENaC); assay: Whole-cell patch clamp, αF435fs + WT βγ; format: cell-based, human; settings: read-out: EC50, solnatide, HEK-293, whole-cell, -100 mV, n = 7
Procedure: as §1, §2, §3

[5] = system: αP197fs (co-expressed with βγ-ENaC); assay: Whole-cell patch clamp, αP197fs + WT βγ; format: cell-based, human; settings: read-out: EC50, solnatide, HEK-293, whole-cell, -100 mV, n = 5, p < 0.001 vs WT
Procedure: as §1, §2, §3

C[C@@H]1NC(=O)CNC(=O)[C@H](CCC(=O)O)NC(=O)[C@@H]2CCCN2C(=O)[C@H]([C@@H](C)O)NC(=O)[C@H](CCC(=O)O)NC(=O)[C@H](CCCNC(=N)N)NC(=O)[C@H](CCC(N)=O)NC(=O)CNC(=O)[C@@H](N)CSSC[C@@H](C(=O)O)NC(=O)[C@H](Cc2ccc(O)cc2)NC(=O)[C@H](Cc2c[nH]c3ccccc23)NC(=O)[C@@H]2CCCN2C(=O)[C@H](CCCCN)NC(=O)[C@H](C)NC(=O)[C@H](CCC(=O)O)NC1=O [solnatide, L-cysteine, L-cysteinylglycyl-L-glutaminyl-L-arginyl-L-α-glutamyl-L-threonyl-L-prolyl-L-α-glutamylglycyl-L-alanyl-L-α-glutamyl-L-alanyl-L-lysyl-L-prolyl-L-tryptophyl-L-tyrosyl-, cyclic (1→17)-disulfide]
Effect of solnatide on current (words) ([1]; n = 3): A small increase in the amiloride-sensitive Na^+ current was still observed; also recorded: still able to activate βM2γM2-ENaC (not significant) to an equal extent as WT βγ-ENaC | Effect of solnatide on current (words) ([1]; n = 3, listed as Solnatide): still increased the amiloride-sensitive sodium current in these mutants | Membrane abundance, solnatide 5 min ([2]; 5 min, own control 0.15 ± 0.06, p < 0.05 vs control): 0.25 ± 0.07 | Membrane abundance, solnatide 10 min ([2]; 10 min, own control 0.15 ± 0.06, p < 0.01 vs control): 0.32 ± 0.11 | Therapeutic activity [3]: profound therapeutic activity | EC50 [4]: 64.6 ± 8.7 nM | EC50 [5]: 84 ± 4.9 nM
